The test system of data set [1] is Staphylococcus aureus. Description: One-minute kill in bacterial culture (colony counts). The note with it: for CFU/ml (1 minute kill): TSB + 20% BCS, 10^7 CFU inoculum; for decrease in CFU: 500 micrograms per milliliter, 1 minute. Format: cell-based. The protocol: Various concentrations of chlorhexidine diacetate (“CHA”) and/or triclosan (“TC”) were dispensed in 1.0 ml trypticase soy broth (“TSB”) containing 20 percent bovine calf serum (“BCS”) and inoculated with 10^7 colony-forming units (“CFU”) of Staphylococcus aureus. After one minute, the cultures were diluted with drug-inactivating medium (1:100 dilution in LTSB drug inactivating medium, which is 5% Tween 80, 2% lecithin, 0.6% sodium oleate, 0.5% sodium thiosulfate, 0.1% protease peptone and 0.1% tryptone) and 0.2 ml of the diluted culture was subcultured on a trypticase soy agar plate for the determination of colony counts.

Data set [2] in a line: Solubility observation. It counts as physicochemical. As to conditions: water or alcohol. The source says: When relatively soluble chlorhexidine salts such as chlorhexidine acetate (CHA) were used to impregnate catheters, the release was undesirably rapid. We investigated the use of CHX as a substitute for CHA.

The structures appear in SMILES notation.

On to `CC(=O)O.CC(=O)O.NC(=N\CCCCCC/N=C(N)/N=C(\N)Nc1ccc(Cl)cc1)/N=C(\N)Nc1ccc(Cl)cc1` [CHA, chlorhexidine diacetate], for which the “CFU/ml (1 minute kill)” value in data set [1] (500 μg/ml) is 6.0 × 10^5 CFU/ml; in data set [1] (1000 μg/ml), 5.0 × 10^4 CFU/ml; in data set [1] (2000 μg/ml), 2.1 × 10^3 CFU/ml. Besides, in data set [1], the “decrease in CFU” value is listed as “approximately 17 fold”.

In the case of `N=C(NCCCCCCNC(=N)NC(=N)Nc1ccc(Cl)cc1)NC(=N)Nc1ccc(Cl)cc1` [CHX, chlorhexidine free base], in data set [2], the solubility result is “not soluble”.

As for `Oc1cc(Cl)ccc1Oc1ccc(Cl)cc1Cl` [TC, 2,4,4′-trichloro-2′-hydroxydiphenyl ether], the “CFU/ml (1 minute kill)” value in data set [1] (250 μg/ml) is 2.0 × 10^5 CFU/ml; in data set [1] (500 μg/ml) it was 4.2 × 10^3 CFU/ml. Also, the “decrease in CFU” value in data set [1] was “approximately 2400 fold”.

The record behind these values is patent publication US6872195B2, “Chlorhexidine-containing medical devices” (The Trustees of Columbia University in the City of New York, priority 1996, dated 2005).
